Assay results taken from ChEMBL document CHEMBL1148245 (Bioorg Med Chem Lett, 2004).
pIC50: −log10 of the molar value.

Tests used:
CYP3A4 = assay: CYP3A4 metabolism half-life (t1/2); conditions: human
[1] = target: T1, 5-hydroxytryptamine receptor 1A (Homo sapiens, UniProt P08908); assay: In vitro binding affinity against 5-hydroxytryptamine 1A receptor using [3H]8-OH-DPAT in human CYP3A4 assay
T1 sequence (P08908 whole entry): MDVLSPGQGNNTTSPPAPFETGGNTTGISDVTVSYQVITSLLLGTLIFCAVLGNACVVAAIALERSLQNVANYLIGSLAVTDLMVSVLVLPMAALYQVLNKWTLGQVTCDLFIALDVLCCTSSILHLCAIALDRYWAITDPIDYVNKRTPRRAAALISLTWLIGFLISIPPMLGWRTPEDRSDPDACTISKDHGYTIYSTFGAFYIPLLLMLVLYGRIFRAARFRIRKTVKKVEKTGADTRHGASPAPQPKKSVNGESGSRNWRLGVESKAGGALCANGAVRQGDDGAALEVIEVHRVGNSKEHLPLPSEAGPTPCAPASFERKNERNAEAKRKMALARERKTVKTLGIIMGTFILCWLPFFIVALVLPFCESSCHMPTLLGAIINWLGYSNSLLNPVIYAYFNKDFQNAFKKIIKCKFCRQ

| half-life (CYP3A4) [min] | pIC50 [1] | SMILES |
| --- | --- | --- |
| 5.1 | 8.70 | COc1ccccc1N1CCN(CCCCN2C(=O)CC3(CCCC3)CC2=O)CC1 |
| 52.3 | 7.20 | O=C1CC2(CCCC2)CC(=O)N1CCCCN1CCN(c2ncc(F)cn2)CC1 |
| 20.4 | 6.36 | O=C1c2ccccc2C(=O)N1CCCCN1CCN(c2ncc(F)cn2)CC1 |
| 18.2 | 6.68 | CC(CCCN1C(=O)c2ccccc2C1=O)N1CCN(c2ncc(F)cn2)CC1 (stereo unspecified) |
| 40.1 | 7.06 | CC(CCCN1C(=O)CC(C)(C)CC1=O)N1CCN(c2ncc(F)cn2)CC1 (stereo unspecified) |
| 30.3 | – | CC1(C)CC(=O)N(CCCCN2CCN(c3ncccn3)CC2)C(=O)C1 [GEPIRONE] |

Further lines, the compound ahead of its results:

| SMILES | half-life (CYP3A4) [min] | pIC50 [1] |
| --- | --- | --- |
| O=C1c2ccccc2C(=O)N1CCCCN1CCN(c2ncccn2)CC1 | 26.8 | 7.22 |
| O=C1CC2(CCCC2)CC(=O)N1CCCCN1CCN(c2ccccc2)CC1 | 8 | 7.82 |
| CC(CCCN1C(=O)CC2(CCCC2)CC1=O)N1CCN(c2ncccn2)CC1 (stereo unspecified) | 3.8 | 8.40 |
| O=C1CC2(CCCC2)CC(=O)N1CCC(O)CN1CCN(c2ncccn2)CC1 (stereo unspecified) | 10.2 | 6.08 |
| O=C1CC2(CCCC2)CC(=O)N1CCC(O)CN1CCN(c2cnccn2)CC1 (stereo unspecified) | 9.6 | < 6.00 |
| COc1ccc(N2CCN(CCCCN3C(=O)CC4(CCCC4)CC3=O)CC2)cc1 | 21.1 | 6.03 |
| CC(C)(CCN1C(=O)CC2(CCCC2)CC1=O)CN1CCN(c2ncccn2)CC1 | 2.9 | 6.15 |
| O=C1CC2(CCCC2)CC(=O)N1CCCCN1CCN(c2cnccn2)CC1 | 5.5 | 6.34 |
| CC(CCCN1C(=O)CC2(CCCC2)CC1=O)N1CCN(c2ncc(F)cn2)CC1 (stereo unspecified) | 14.8 | 7.34 |
| O=C1CC2(CCCC2)CC(=O)N1CCC(O)CN1CCN(c2ccc(F)cc2)CC1 (stereo unspecified) | 3.8 | 7.16 |
| CC(CCCN1C(=O)CC2(CCCC2)CC1=O)N1CCN(c2ccc(F)cc2)CC1 (stereo unspecified) | 2.4 | 7.00 |
| COc1ccccc1N1CCN(CC(O)CCN2C(=O)CC3(CCCC3)CC2=O)CC1 (stereo unspecified) | 7.8 | 7.92 |
| O=C1CC2(CCCC2)CC(=O)N1CCCCN1CCN(c2ccc(F)cc2)CC1 | 3.2 | 7.19 |
| CC1(C)CC(=O)N(CCCCN2CCN(c3ncc(F)cn3)CC2)C(=O)C1 | 78.3 | 6.69 |
| CC(O)(CCN1C(=O)CC2(CCCC2)CC1=O)CN1CCN(c2ncccn2)CC1 (stereo unspecified) | 8.6 | 5.84 |
